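Compound exposure: 48 hours, 5 concentrations, 96-well plates. TGI denotes the concentration required for complete inhibition of growth.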
Key:
Assay in all cases: growth of human tumour cells (NCI), 48 h
HT29 colon = tested on: HT29 colon
TK-10 renal = tested on: TK-10 renal
SR leukemia = tested on: SR leukemia
MDA-MB-231 breast = tested on: MDA-MB-231 breast
UO-31 renal = tested on: UO-31 renal
DU-145 prostate = tested on: DU-145 prostate
SK-OV-3 ovarian = tested on: SK-OV-3 ovarian
NCI-H23 lung = tested on: NCI-H23 lung
UACC-62 melanoma = tested on: UACC-62 melanoma
RXF 393 renal = tested on: RXF 393 renal
SW-620 colon = tested on: SW-620 colon
A498 renal = tested on: A498 renal
COLO 205 colon = tested on: COLO 205 colon
MALME-3M melanoma = tested on: MALME-3M melanoma

| SMILES | TGI (HT29 colon) | TGI (TK-10 renal) | TGI (SR leukemia) | TGI (MDA-MB-231 breast) | TGI (UO-31 renal) | TGI (DU-145 prostate) | TGI (SK-OV-3 ovarian) | TGI (NCI-H23 lung) | TGI (UACC-62 melanoma) | TGI (RXF 393 renal) | TGI (SW-620 colon) | TGI (A498 renal) | TGI (COLO 205 colon) | TGI (MALME-3M melanoma) |
| --- | --- | --- | --- | --- | --- | --- | --- | --- | --- | --- | --- | --- | --- | --- |
| COc1cc(-c2nc3ccc(N4CCN(C)CC4)cc3[nH]2)c(OC)c2[nH]c(COC(C)=O)nc12 | > 100 µM | > 100 µM | 73 µM | > 100 µM | > 100 µM | 95.5 µM | > 100 µM | > 100 µM | > 100 µM | 59.4 µM | > 100 µM | > 100 µM | > 100 µM | 63.8 µM |
| CCOC(=O)c1nc2ccc(C(F)(F)F)cc2nc1Nc1cc(OC)c(OC)c(OC)c1 | > 100 µM | > 100 µM | > 100 µM | > 100 µM | > 100 µM | > 100 µM | > 100 µM | > 100 µM | > 100 µM | > 100 µM | > 100 µM | > 100 µM | > 100 µM | > 100 µM |
| COc1ccc([N+](=O)[O-])c2c(NCCCN(C)C)ccnc12 | > 32.4 µM | 70.5 µM | 1.97 µM | > 73.8 µM | 17.3 µM | 29.1 µM | 43.2 µM | 6.19 µM | 11.4 µM | 8.32 µM | 32.4 µM | 5.18 µM | 7.17 µM | 5.62 µM |
| CC(O)C1(CNc2cc(Cl)nc(N)n2)CCCCC1 (configuration not stated) | > 100 µM | > 100 µM | > 100 µM | > 100 µM | > 100 µM | > 100 µM | > 100 µM | > 100 µM | > 100 µM | > 100 µM | > 100 µM | > 100 µM | > 100 µM | > 100 µM |
| CC(Oc1ccccc1Cl)C(=O)NN1C(=O)CC(=O)N(c2ccccc2)C1=S (configuration not stated) | > 100 µM | > 100 µM | > 100 µM | > 100 µM | > 100 µM | > 100 µM | > 100 µM | > 100 µM | > 100 µM | > 100 µM | > 100 µM | > 100 µM | > 100 µM | > 100 µM |
| CCCCCCCCCCCC(=O)OC[C@H](C[As](=O)(O)O)OC(=O)CCCCCCCCCCC | 21.7 µM | 15.1 µM | > 100 µM | 16.3 µM | 29.5 µM | 44.2 µM | 28.9 µM | 21.2 µM | 6.98 µM | 5.68 µM | 27.4 µM | 17.1 µM | 38.8 µM | 7.14 µM |
| CCOP(=O)(OCC)/C(C#N)=C/c1cccn1C(C)C | > 100 µM | > 100 µM | > 100 µM | > 100 µM | > 100 µM | > 100 µM | > 100 µM | > 100 µM | > 100 µM | > 100 µM | > 100 µM | > 100 µM | > 100 µM | > 100 µM |
| CSC1NC(c2ccccc2)=C(C#N)C(=O)N1C1OCC(OC(C)=O)C(OC(C)=O)C1OC(C)=O (configuration not stated) | > 100 µM | > 100 µM | > 100 µM | > 100 µM | > 100 µM | > 100 µM | > 100 µM | > 100 µM | > 100 µM | > 100 µM | > 100 µM | > 100 µM | > 100 µM | > 100 µM |
